The test system of one data set is Staphylococcus aureus. Put plainly: Antibacterial activity against Staphylococcus aureus isolate 38 measured after 18 to 24 hrs by broth microdilution method. It counts as functional. The conditions noted are these: time 18-24 hrs. For orientation: In broth dilution the organism is exposed to a series of concentrations in liquid medium.
A further data set has as its system Escherichia coli. Put plainly: Antibacterial activity against Escherichia coli K12 measured after 18 to 24 hrs by broth microdilution method. It counts as functional. Particulars: time 18-24 hrs.
Data set [1] relates to Pseudomonas aeruginosa. Description: Antibacterial activity against Pseudomonas aeruginosa PAO1 measured after 18 to 24 hrs by broth microdilution method. Particulars: time 18-24 hrs. It is filed as functional.
The target in data set [2] is T1, Transcriptional activator protein LasR (Pseudomonas aeruginosa (strain ATCC 15692 / PAO1 / 1C / PRS 101 / LMG12228)) (UniProt P25084).
T1 sequence (whole entry): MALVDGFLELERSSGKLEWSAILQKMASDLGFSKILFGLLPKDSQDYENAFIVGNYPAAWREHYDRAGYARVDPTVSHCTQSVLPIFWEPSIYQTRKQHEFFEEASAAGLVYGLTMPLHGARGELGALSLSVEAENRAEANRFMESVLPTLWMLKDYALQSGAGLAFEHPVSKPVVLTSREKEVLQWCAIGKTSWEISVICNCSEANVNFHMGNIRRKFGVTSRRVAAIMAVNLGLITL
Put plainly: Inhibition of LasR quorum sensing system in Pseudomonas aeruginosa MH602 expressing PlasB::gfp assessed as reduction in GFP expression at 16 uM incubated for 15 hrs by fluorescence microplate reader analysis relative to control.

Data set [3] can be described thus: Inhibition of quorum sensing system in Pseudomonas aeruginosa PAO1 assessed as reduction in pyocyanin production at 64 uM measured after 48 hrs relative to control.
Data set [4] relates to Pseudomonas aeruginosa. Put plainly: Growth inhibition of Pseudomonas aeruginosa MH602 expressing PlasB::gfp at 16 uM relative to control. Particulars: read-out: GI. It is filed as functional.
A short description of data set [5]: Hemolytic activity in horse RBC measured after 4 hrs. It is filed as toxicity, cell-based, Equus caballus, Erythrocyte. The conditions noted are these: horse red blood cells.
Data set [6] is described as follows: Hemolytic activity in horse RBC assessed as hemolysis at 500 uM measured after 4 hrs relative to control. It counts as toxicity, cell-based, Equus caballus, Erythrocyte. The conditions noted are these: horse red blood cells, read-out: Activity.

≈ marks a conversion by molar mass, not a printed value. Calls of active or inactive are those of the source. The calls are words filed in the database; no cut-off is given here. Some results are limits rather than exact numbers.

The MIC90 is the lowest concentration that inhibits either 90% of growth or 90% of the strains tested, depending on the study. Read a low MIC90 as higher susceptibility. The inhibition is the change of the read-out against control, counted positive when it falls. Regarding `C=C1C(c2ccc(Cl)cc2)=CC(=O)N1CC[n+]1ccn(C)c1`, the MIC90 in the data set with Staphylococcus aureus was 250 µM; against Escherichia coli, more than 250 µM; against Pseudomonas aeruginosa [1], more than 250 µM. The inhibition in data set [2] came out at 23.4%. In addition, the inhibition result in data set [3] was “inactive”.

Consider `C=C1C(c2ccccc2)=CC(=O)N1CCCSC(=N)N`, for which the figures for the MIC90 with Staphylococcus aureus, in the data set on Escherichia coli and in the data set with Pseudomonas aeruginosa [1] were 125 µM (≈ 35.9 µg/mL), more than 250 µM and more than 250 µM, respectively. For the same compound, the inhibition in data set [2] came to 0%. The inhibition of growth at 16 µM in the data set with Pseudomonas aeruginosa [4] was more than 20%.

Take `O=C1C=C(Br)/C(=C/Br)O1`: the inhibition in data set [2] worked out at 62.5%.

For `C=C1C(c2ccc(F)cc2)=CC(=O)N1CCSC(=N)N`, the MIC90 against Staphylococcus aureus is 250 µM (≈ 72.8 µg/mL); against Escherichia coli, 250 µM (≈ 72.8 µg/mL); against Pseudomonas aeruginosa [1] it was more than 250 µM. The inhibition in data set [2] was 73.4%; in data set [3], 70%. In addition, the inhibition of growth at 16 µM in the data set on Pseudomonas aeruginosa [4] was determined as 16%.

Usually HC50 stands for the concentration that lyses half of the red blood cells. Lower therefore signals more damage to red cells. For the compound `C=C1C(c2ccc(Br)cc2)=CC(=O)N1CCC[n+]1ccn(C)c1`, the MIC90 was 32 µM against Staphylococcus aureus, 125 µM in the data set with Escherichia coli and more than 250 µM with Pseudomonas aeruginosa [1]. In data set [2], the inhibition amounted to 0%. The inhibition result in data set [3] is “inactive”. In addition, the HC50 at 4 h in data set [5] was more than 31 µM.

On to `C=C1C(c2ccc(Br)cc2)=CC(=O)N1CC[Se]C(=N)N`, for which the MIC90 was 64 µM (≈ 25.5 µg/mL) in the data set on Staphylococcus aureus, 125 µM (≈ 49.9 µg/mL) in the data set with Escherichia coli and more than 250 µM in the data set on Pseudomonas aeruginosa [1]. The figures for the inhibition in data set [2] and in data set [3] were 69.4% and 70%, respectively.

Regarding `C=C1C(c2ccc(Br)cc2)=CC(=O)N1CCSC(=N)N`, the MIC90 with Staphylococcus aureus is 16 µM (≈ 5.64 µg/mL); against Escherichia coli, 32 µM (≈ 11.3 µg/mL); with Pseudomonas aeruginosa [1], 125 µM (≈ 44 µg/mL). The inhibition in data set [2] amounted to 57.1%. The HC50 at 4 h in data set [5] was more than 500 µM. Moreover, the hemolysis at 4 h, 500 µM in data set [6] came to 22%.

For `C=C1C(c2ccc(Br)cc2)=CC(=O)N1CC[n+]1ccn(C)c1`, the results for the MIC90 against Staphylococcus aureus, against Escherichia coli and in the data set on Pseudomonas aeruginosa [1] were 64 µM, 250 µM and more than 250 µM, respectively. In addition, the inhibition in data set [2] amounted to 0%. For the same compound, the inhibition entry in data set [3] is “inactive”.

For `C=C1C(c2ccc(Cl)cc2)=CC(=O)N1CC[Se]C(=N)N`, the values for the MIC90 with Staphylococcus aureus, against Escherichia coli and against Pseudomonas aeruginosa [1] were 64 µM (≈ 22.7 µg/mL), 125 µM (≈ 44.3 µg/mL) and more than 250 µM, respectively. For the same compound, the inhibition in data set [2] turned out to be 72.8%. In the data set with Pseudomonas aeruginosa [4], the inhibition of growth at 16 µM amounted to 15%. The same compound showed an HC50 at 4 h in data set [5] of more than 500 µM.

With `C=C1C(c2ccc(F)cc2)=CC(=O)N1CC[Se]C(=N)N`, the values for the MIC90 with Staphylococcus aureus, in the data set with Escherichia coli and in the data set on Pseudomonas aeruginosa [1] were 64 µM (≈ 21.6 µg/mL), 250 µM (≈ 84.6 µg/mL) and more than 250 µM, respectively. Moreover, the inhibition in data set [2] was found to be 64.5%.

In the case of `C=C1C(c2ccc(F)cc2)=CC(=O)N1CCCSC(=N)N`, the results for the MIC90 in the data set with Staphylococcus aureus, in the data set with Escherichia coli and in the data set on Pseudomonas aeruginosa [1] were 64 µM (≈ 19.5 µg/mL), 125 µM (≈ 38.2 µg/mL) and 250 µM (≈ 76.3 µg/mL), respectively. The inhibition in data set [2] was determined as 59.9%. The HC50 at 4 h in data set [5] was more than 500 µM.

`C=C1C(c2ccc(F)cc2)=CC(=O)N1CC[n+]1ccn(C)c1`: the MIC90 in the data set with Staphylococcus aureus, with Escherichia coli and in the data set with Pseudomonas aeruginosa [1] was more than 250 µM throughout. Moreover, the inhibition in data set [2] was determined as 31.4%. Also, in data set [3], the inhibition entry was “inactive”.

`C=C1C(c2ccccc2)=CC(=O)N1CCSC(=N)N`: the MIC90 against Staphylococcus aureus, in the data set on Escherichia coli and in the data set on Pseudomonas aeruginosa [1] was more than 250 µM each time. Also, the values for the inhibition in data set [2] and in data set [3] were 9.5% and more than 60%, respectively. Moreover, in the data set with Pseudomonas aeruginosa [4], the inhibition of growth at 16 µM was more than 20%.

Regarding `C=C1C(c2ccc(Br)cc2)=CC(=O)N1CCCSC(=N)N`, the MIC90 with Staphylococcus aureus is 64 µM (≈ 23.4 µg/mL); against Escherichia coli, 64 µM (≈ 23.4 µg/mL); in the data set on Pseudomonas aeruginosa [1] it was 250 µM (≈ 91.6 µg/mL). Moreover, in data set [2], the inhibition was 48.3%. Also, in the data set with Pseudomonas aeruginosa [4], the inhibition of growth at 16 µM was less than 20%.

`C=C1C(c2ccc(F)cc2)=CC(=O)N1CCC[n+]1ccn(C)c1`: the MIC90 in the data set on Staphylococcus aureus, with Escherichia coli and in the data set on Pseudomonas aeruginosa [1] was more than 250 µM in each case. In addition, the inhibition in data set [2] was found to be 14.6%. In addition, the inhibition result in data set [3] was “inactive”.

In the case of `C=C1C(c2ccc(Cl)cc2)=CC(=O)N1CCC[Se]C(=N)N`, the MIC90 was 64 µM (≈ 23.6 µg/mL) against Staphylococcus aureus, 125 µM (≈ 46.1 µg/mL) with Escherichia coli and more than 250 µM in the data set on Pseudomonas aeruginosa [1]. Further, the inhibition in data set [2] is 56.2%. This compound displayed an HC50 at 4 h in data set [5] of more than 500 µM.

For `C=C1C(c2ccc(Br)cc2)=CC(=O)N1CCC[Se]C(=N)N`, the MIC90 against Staphylococcus aureus was 32 µM (≈ 13.2 µg/mL); against Escherichia coli, 64 µM (≈ 26.4 µg/mL); in the data set with Pseudomonas aeruginosa [1] it was 250 µM (≈ 103 µg/mL). In addition, in data set [2], the inhibition worked out at 53.2%. The HC50 at 4 h in data set [5] is more than 250 µM.

As to `C=C1C(c2ccccc2)=CC(=O)N1CCC[n+]1ccn(C)c1`, the MIC90 against Staphylococcus aureus, against Escherichia coli and with Pseudomonas aeruginosa [1] was more than 250 µM in each case. Besides, in data set [2], the inhibition was 17.6%. Further, in data set [3], the inhibition result is “inactive”.

In the case of `C=C1C(c2ccc(Cl)cc2)=CC(=O)N1CCC[n+]1ccn(C)c1`, the values for the MIC90 in the data set with Staphylococcus aureus, against Escherichia coli and with Pseudomonas aeruginosa [1] were 250 µM, more than 250 µM and more than 250 µM, respectively. The inhibition in data set [2] is 17.3%. Besides, the inhibition result in data set [3] was “inactive”.

Consider `C=C1C(c2ccc(F)cc2)=CC(=O)N1CCC[Se]C(=N)N`, for which the MIC90 is 250 µM (≈ 88.1 µg/mL) against Staphylococcus aureus, 250 µM (≈ 88.1 µg/mL) with Escherichia coli and more than 250 µM with Pseudomonas aeruginosa [1]. In data set [2], the inhibition was determined as 41.9%.

For the compound `C=C1C(c2ccccc2)=CC(=O)N1CC[n+]1ccn(C)c1`, the MIC90 in the data set with Staphylococcus aureus is 250 µM; in the data set on Escherichia coli, 250 µM; in the data set with Pseudomonas aeruginosa [1], more than 250 µM. For the same compound, the inhibition in data set [2] was 14.4%. In addition, in data set [3], the inhibition result is “inactive”.

For the compound `C=C1C(c2ccc(Cl)cc2)=CC(=O)N1CCSC(=N)N`, the MIC90 is 125 µM (≈ 38.5 µg/mL) in the data set on Staphylococcus aureus, more than 250 µM against Escherichia coli and more than 250 µM with Pseudomonas aeruginosa [1]. Besides, in data set [2], the inhibition was 40.8%.

For `C=C1C(c2ccc(Cl)cc2)=CC(=O)N1CCCSC(=N)N`, the figures for the MIC90 in the data set on Staphylococcus aureus, with Escherichia coli and against Pseudomonas aeruginosa [1] were 64 µM (≈ 20.6 µg/mL), 64 µM (≈ 20.6 µg/mL) and 250 µM (≈ 80.5 µg/mL), respectively. For the same compound, the values for the inhibition in data set [2] and in data set [3] were 53.1% and 70%, respectively.

As to `C=C1C(c2ccccc2)=CC(=O)N1CCC[Se]C(=N)N`, the MIC90 in the data set on Staphylococcus aureus is 250 µM (≈ 83.6 µg/mL); against Escherichia coli, more than 250 µM; in the data set on Pseudomonas aeruginosa [1], more than 250 µM. The inhibition in data set [2] worked out at 51.5%.

As for `C=C1C(c2ccccc2)=CC(=O)N1CC[Se]C(=N)N`, the MIC90 against Staphylococcus aureus, in the data set on Escherichia coli and against Pseudomonas aeruginosa [1] was more than 250 µM in each case. Further, the inhibition in data set [2] worked out at 30.5%.

The values are drawn from ChEMBL document CHEMBL6109110, “Novel cationic dihydropyrrol-2-one compounds as antimicrobial agents and quorum sensing inhibitors” (Bioorg Med Chem, 2025).
